Data set [1] relates to ALK5. On the set-up: method as in PMID 16271073. The following applies: cited from earlier work.
Data set [2] concerns the target T1, ALK5 (Homo sapiens, UniProt P36897).
T1 sequence (P36897 205-495 limits assumed): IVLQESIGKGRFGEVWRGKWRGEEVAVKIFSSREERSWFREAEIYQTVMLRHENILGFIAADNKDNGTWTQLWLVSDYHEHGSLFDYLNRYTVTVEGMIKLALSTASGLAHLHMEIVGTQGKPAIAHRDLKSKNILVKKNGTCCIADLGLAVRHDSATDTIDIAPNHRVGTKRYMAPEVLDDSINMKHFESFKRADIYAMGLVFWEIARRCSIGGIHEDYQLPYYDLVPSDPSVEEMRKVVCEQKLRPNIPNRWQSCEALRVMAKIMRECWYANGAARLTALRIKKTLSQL
Description: Radiometric 33PanQinase ALK5 kinase assay (ProQinase), casein substrate. It is filed as biochemical. The following applies: for Selectivity Index: IC50 of p38α/IC50 of ALK5; for ALK5 inhibitory activity in words: at up to 5.0 μM for 18a–d, 'at up to 2.26 μM' for pyrimidin-4-yl compounds. As to the method:
To investigate whether compounds 14a–d, 15a–d, 16a–d, 17a–d, 18a–d, and 19a–d would inhibit ALK5, a kinase assay for preliminary screening was performed using the purified human ALK5 kinase domain produced in Sf9 insect cells and compounds at 10 μM.
(§1) All kinase experiments were completed by the ProQinase (Freiburg, Germany). All protein kinases were expressed in Sf9 insect cells or in E. coli as recombinant GST-fusion proteins or His-tagged proteins, either as full-length or enzymatically active fragments. All kinases were obtained from human cDNAs and purified by either GSH-affinity chromatography or immobilized metal. The purity of the protein kinases was examined by SDS-PAGE/Coomassie staining. The identity was checked by mass spectroscopy.
(§2) A radiometric protein kinase assay (^33PanQinase® activity assay) was used for measuring the kinase activity of the two protein kinases. All kinase assays were performed in 96-well FlashPlates^TM from PerkinElmer (Boston, MA, USA) in 50 μL reaction volumes. The reaction cocktail was pipetted in four steps in the following order: 20 μL of assay buffer (standard buffer), 5 μL of ATP solution (in H2O), 5 μL of test compound (in 10% DMSO), 20 μL enzyme/substrate mix.
(§3) The assay for all protein kinases contained 70 mM HEPES-NaOH pH 7.5, 3 mM MgCl2, 3 mM MnCl2, 3 μM Na-orthovanadate, 1.2 mM DTT, 50 μg/mL PEG20000, ATP, [γ-^33P]-ATP, protein kinase, and substrate.
(§4) The reaction cocktail was incubated at 30 °C for 60 min. The reaction was halted with 50 μL of 2% (v/v) H3PO4, plates were aspirated and washed two times with 200 μL 0.9% (w/v) NaCl. Incorporation of ^33Pi was established with a microplate scintillation counter (PerkinElmer, Boston, MA, USA). All assays were performed with a BeckmanCoulter/SAGIAN™ Core System.

In another data set the target is p38α MAP kinase (Homo sapiens, UniProt Q16539). Description: Radiometric 33PanQinase p38α MAP kinase assay (ProQinase), ATF2 substrate. Type of data set: biochemical.
Excerpt: We selected p38α MAP kinase to survey the selectivity profile of this series of compounds because its kinase domain is among the most homologous to that of ALK5 [27].
as §1, §2, §3, §4

Sequence of p38α MAP kinase (Q16539 whole entry, the tested form may be a part): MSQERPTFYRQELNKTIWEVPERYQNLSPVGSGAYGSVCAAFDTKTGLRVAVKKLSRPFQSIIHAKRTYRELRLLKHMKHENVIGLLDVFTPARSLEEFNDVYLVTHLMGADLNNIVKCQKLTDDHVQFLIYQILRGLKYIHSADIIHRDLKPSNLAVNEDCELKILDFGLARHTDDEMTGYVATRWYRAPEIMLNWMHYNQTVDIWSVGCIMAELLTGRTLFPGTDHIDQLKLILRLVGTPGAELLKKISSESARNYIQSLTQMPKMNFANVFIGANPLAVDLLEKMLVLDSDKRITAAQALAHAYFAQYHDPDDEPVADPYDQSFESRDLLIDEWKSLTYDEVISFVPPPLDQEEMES

Usually IC50 stands for the concentration at which inhibition is half-maximal. For the molecule `Cc1cccc(-c2nn(C(=S)Nc3ccccc3)cc2-c2ccnc3ccccc23)n1` [Compound 6, A-83-01], the IC50 in the data set with ALK5 [1] was 0.012 µM.

As usually defined, the melting point is the temperature, or range, at which the solid turns liquid. For the molecule `O=C(Cn1cc(-c2ccc3nccnc3c2)c(-c2ccncn2)n1)Nc1ccccc1` [Compound 25a, N-Phenyl-2-(3-(pyrimidin-4-yl)-4-(quinoxalin-6-yl)-1H-pyrazol-1-yl)acetamide], the melting point lay in the range of 170.3 to 172.5 °C. At ALK5 [2], inhibition was half-maximal at 5.03 µM (IC50), the “Selectivity Index” value is listed as more than 2 and the “ALK5 inhibitory activity in words” value is given as “no significant ALK5 inhibition activity”. Moreover, on p38α MAP kinase, the IC50 was more than 10 µM.

The molecule `O=C(Cn1cc(-c2ccc3nccnc3c2)c(-c2ccncn2)n1)Nc1ccccc1F` [Compound 25b, N-(2-Fluorophenyl)-2-(3-(pyrimidin-4-yl)-4-(quinoxalin-6-yl)-1H-pyrazol-1-yl)acetamide] yielded a melting point of 192.3 to 194.5 °C. Further, on ALK5 [2], the IC50 turned out to be 3.66 µM, the “Selectivity Index” value is on record as more than 3 and the “ALK5 inhibitory activity in words” value was “no significant ALK5 inhibition activity”. Besides, the IC50 on p38α MAP kinase is more than 10 µM.

For the molecule `N#Cc1cccc(NC(=O)Cn2cc(-c3ccc4nccnc4c3)c(-c3ccncn3)n2)c1` [Compound 25d, N-(3-Cyanophenyl)-2-(3-(pyrimidin-4-yl)-4-(quinoxalin-6-yl)-1H-pyrazol-1-yl)acetamide], the melting point lay in the range of 178.3 to 180.5 °C. On ALK5 [2], inhibition was half-maximal at 4.12 µM (IC50), the “Selectivity Index” value is more than 2 and the “ALK5 inhibitory activity in words” value was “no significant ALK5 inhibition activity”. Besides, the IC50 against p38α MAP kinase is more than 10 µM.

The values are drawn from article PMC6320941, “Synthesis and Evaluation of 3-Substituted-4-(quinoxalin-6-yl) Pyrazoles as TGF-β Type I Receptor Kinase Inhibitors” (Molecules, 2018).
